Read-outs that look alike come from different tables or passages of the source.
Assays:
Assay type in all cases: biochemical
chymotrypsin = target: T1, chymotrypsin (Bos taurus, UniProt P00766); test: Chymotrypsin-inhibitory activity; conditions: concentration 0.1 μM; bovine pancreas, pH 8.0
T1 construct: purchased Sigma; host or cells: bovine pancreas
Experimental: (§1) Inhibitory activity against various proteases
(§2) The compound of the present invention having predetermined concentrations was tested for the specificity of the inhibitory activity against various proteases according to a known test method.
(§3) The methods for the determination of the inhibitory activity against various proteases other than prolyl endopeptidase and the method for calculating the inhibition are as follows.
Determination of chymotrypsin-inhibitory activity
In completely the same manner as above, respective fluorescence (c1, c2 and c3) was determined using a 50 mM Tris-HCl buffer (pH 8.0) as a buffer for determination, a 0.2 μM solution of chymotrypsin (derived from bovine pancreas, Sigma) in the same buffer as an enzyme solution, and a 200 μM solution of 7-(N-succinyl-leucyl-leucyl-varyl-tyrosyl)-4-methylcoumarinamide (Peptide Institute, Inc.) in the same buffer as a substrate solution.
(§4) Using the fluorescence x1, x2 and x3 wherein x is b, c, d, e or f, measured in the above-mentioned manner, the inhibition against various proteases was calculated by the following formula: [formula]

trypsin = target: T2, trypsin (Bos taurus, UniProt P00760); test: Trypsin-inhibitory activity; conditions: concentration 0.1 μM; bovine pancreas, pH 8.0
T2 construct: purchased Sigma; host or cells: bovine pancreas
T2 sequence (P00760 24-246): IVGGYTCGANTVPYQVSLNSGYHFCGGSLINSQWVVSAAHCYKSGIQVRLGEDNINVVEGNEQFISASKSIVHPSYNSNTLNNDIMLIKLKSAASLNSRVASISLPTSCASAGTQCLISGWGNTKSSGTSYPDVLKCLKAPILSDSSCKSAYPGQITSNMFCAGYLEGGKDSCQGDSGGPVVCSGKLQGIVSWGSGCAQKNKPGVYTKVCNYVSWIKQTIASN
Experimental: as §1, §2, §3
Determination of trypsin-inhibitory activity
In the present invention, a 50 mM Tris-HCI buffer (pH 8.0) was used as a buffer for measurement.
To a mixture of the above-mentioned buffer (850 μl ), a solution of the compound of the present invention in the same buffer (50 μl ) and a 0.02 μM solution of trypsin (derived from bovine pancreas, Sigma) in the same buffer (50 μl ) was added a 200 μM solution of 7-(prolyl-phenylaranyl-arginyl)-4methylcoumarinamide (Peptide Institute, Inc.) in the same buffer (50 μl), and the mixture was incubated at 30° C. for 1 hour. The reaction mixture was immersed in ice (0° C.) to terminate the reaction, and the fluorescence (b1) was determined 1 hour later (excitation at 370 nm and emission at 440 nm). Concurrently, an experiment wherein, in the system above, the trypsin solution was substituted for a buffer and an experiment wherein the solution of the compound of the present invention was substituted for said buffer were conducted. Each fluorescence (b2 and b3) was determined.
as §4

prolyl endopeptidase = target: T3, prolyl endopeptidase (Rattus norvegicus, UniProt O70196); test: Prolyl endopeptidase-inhibitory activity; conditions: for inhibition at 0.1 µM: read-out: inhibition of prolyl endopeptidase
T3 construct: prolyl endopeptidase extracted from rat brain; from tissue; host or cells: rat brain
T3 sequence (O70196 1-710): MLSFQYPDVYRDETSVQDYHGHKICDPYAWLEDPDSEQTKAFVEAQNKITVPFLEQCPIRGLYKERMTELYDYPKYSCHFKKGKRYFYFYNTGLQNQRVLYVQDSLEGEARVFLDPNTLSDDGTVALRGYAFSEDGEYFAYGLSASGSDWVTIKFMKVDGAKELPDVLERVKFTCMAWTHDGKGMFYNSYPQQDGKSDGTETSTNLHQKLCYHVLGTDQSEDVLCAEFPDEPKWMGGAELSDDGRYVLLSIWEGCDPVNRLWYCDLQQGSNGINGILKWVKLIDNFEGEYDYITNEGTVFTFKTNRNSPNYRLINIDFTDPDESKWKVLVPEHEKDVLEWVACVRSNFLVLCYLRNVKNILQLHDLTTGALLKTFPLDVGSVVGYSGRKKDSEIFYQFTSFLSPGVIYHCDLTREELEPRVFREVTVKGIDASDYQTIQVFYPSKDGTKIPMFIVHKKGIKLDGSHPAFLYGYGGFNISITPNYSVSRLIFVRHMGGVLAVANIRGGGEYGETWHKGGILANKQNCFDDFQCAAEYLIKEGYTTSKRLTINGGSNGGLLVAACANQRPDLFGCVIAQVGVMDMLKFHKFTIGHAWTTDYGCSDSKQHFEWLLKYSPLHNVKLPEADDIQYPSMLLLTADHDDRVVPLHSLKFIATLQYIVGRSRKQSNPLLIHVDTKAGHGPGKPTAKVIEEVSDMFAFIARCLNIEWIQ
Experimental: Prolyl endopeptidase-inhibitory activity
A mixture of a 0.1M potassium-sodium phosphate buffer (pH 7.0, 2675 μl ), a solution of the compound of the present invention in a 0.1M potassium-sodium phosphate buffer (pH 7.0, 100 μl ) and a solution of prolyl endopeptidase extracted from rat brain in a 25 mM sodium phosphate buffer (100 μl ) [123 unit/1, pH 6.8, containing 1 mM dithiothreitol and 0.5 mM EDTA, prepared by the method described in J. Neurochem., 35, 527 (1980)] was preincubated at 30° C. for 30 minutes. Thereto was added a 0.2 mM solution of 7-(N-succinyl-glycyl-prolyl)-4methylcoumarinamide (Peptide Institute, INC.) in a 0.1M potassium-sodium phosphate buffer (pH 7.0, 125 μl), and the mixture was incubated at 30° C. for 1 hour. The reaction mixture was immersed in ice (0° C.) to terminate the reaction, and the fluorescence (a1) was determined ten minutes later (excitation at 370 nm and emission at 440 nm). Concurrently, an experiment wherein, in the above system, the prolyl endopeptidase solution was substituted for a 25 mM sodium phosphate buffer (pH 6.8, containing 1 mM dithiothreitol and 0.5 mM EDTA) and an experiment wherein the solution of the compound of the present invention was substituted for a 0.1M potassium-sodium phosphate buffer (pH 7.0) were conducted. Each fluorescence (a2 and a3) was determined [See Tanpakushitsu Kakusan Koso, 29, 127 (1984)]. The prolyl endopeptidase inhibition was calculated by the following formula, and IC50, a concentration necessary for 50% inhibition, was estimated by using a semilogarithmic graph paper. [formula]

leucine aminopeptidase = test: Leucine aminopeptidase-inhibitory activity; conditions: concentration 0.1 μM; swine kidney, pH 8.0
Experimental: as §1, §2, §3
Determination of leucine aminopeptidase-inhibitory activity
In completely the same manner as above, respective fluorescence (d1, d2 and d3) was determined using a 50 mM Tris-HCl buffer (pH 8.0) as a buffer for determination, a 0.2 μM solution of leucine aminopeptidase (derived from swine kidney, Sigma) in the same buffer as an enzyme solution and a 200 μM solution of 7-leucyl-4-methyl-coumarinamide (Peptide Institute, Inc.) in the same buffer as a substrate solution.
as §4

elastase = target: T4, elastase (Sus scrofa, UniProt P00772); test: Elastase-inhibitory activity; conditions: concentration 0.1 μM; swine pancreas, pH 8.5
T4 construct: purchased Sigma; host or cells: swine pancreas
T4 sequence (P00772 27-266): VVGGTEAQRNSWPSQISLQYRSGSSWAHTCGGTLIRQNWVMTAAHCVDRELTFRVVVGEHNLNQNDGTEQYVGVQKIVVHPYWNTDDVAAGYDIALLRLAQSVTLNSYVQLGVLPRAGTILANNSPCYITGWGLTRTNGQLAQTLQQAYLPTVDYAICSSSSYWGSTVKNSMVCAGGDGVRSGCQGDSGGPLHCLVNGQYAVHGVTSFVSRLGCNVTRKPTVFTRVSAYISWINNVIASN
Experimental: as §1, §2, §3
Determination of elastase-inhibitory activity
In completely the same manner as above, respective fluorescence (e1, e2 and e3) was determined using a 1 mM Tris-HCl buffer (pH 8.5) as a buffer for determination, a 0.2 μM solution of elastase (derived from swine pancreas, Sigma) in the same buffer as an enzyme solution and a 200 μM solution of 7-(N-succinyl-aranyl-prolyl-aranyl)-4-methylcoumarinamide (Peptide Institute, Inc.) in the same buffer as a substrate solution.
as §4

cathepsin B = target: T5, cathepsin B (Bos taurus, UniProt P07688); test: Cathepsin B-inhibitory activity; conditions: concentration 0.1 μM; bovine spleen, pH 6.0
T5 construct: purchased Sigma; host or cells: bovine spleen
Experimental: as §1, §2, §3
Determination of cathepsin B-inhibitory activity
In completely the same manner as above, respective fluorescence (f1, f2 and f3) was determined using a 100 mM sodium phosphate buffer (pH 6.0; containing 1.33 mM EDTA Na2) as a buffer for determination, a 0.02 μM solution of cathepsin B (derived from bovine spleen, Sigma) in the same buffer as an enzyme solution and a 200 μM solution of 7-(N-benzyloxy-carbonyl-phenylaranyl-arginyl)-4-methylcouma-rinamide (Peptid Institute, Inc.) in the same buffer as a substrate solution.
as §4

| inhibition at 0.1 µM (prolyl endopeptidase; concentration 0.1 μM) [%] | Compound | inhibition at 0.1 µM (chymotrypsin) [%] | inhibition at 0.1 µM (trypsin) [%] | IC50 (prolyl endopeptidase) [nM] | inhibition at 0.1 µM (prolyl endopeptidase) [%] | inhibition of leucine aminopeptidase (leucine aminopeptidase) [%] | inhibition at 0.1 µM (elastase) [%] | inhibition at 0.1 µM (cathepsin B) [%] |
| --- | --- | --- | --- | --- | --- | --- | --- | --- |
| – | CC(=O)OCC(=O)[C@@H]1CCCN1C(=O)[C@@H]1CCCN1C(=O)NCc1ccccc1 [Compound 1, (S)-2-[[(S)-2-(Acetoxyacetyl)-1-pyrrolidinyl]carbonyl]-N-(phenylmethyl)-1-pyrrolidinecarboxamide] | 0 | 0 | 0.1 | 100 | 0 | 0 | 0 |
| 98 | O=C(CO)[C@@H]1CCCN1C(=O)[C@@H]1CCCN1C(=O)NCc1ccccc1 [Compound 2, (S)-2-[[(S)-2-(Hydroxyacetyl)-1-pyrrolidinyl]carbonyl]-N-(phenylmethyl)-1-pyrrolidinecarboxamide] | 0 | 0 | – | – | 0 | 0 | 0 |
| – | O=C(OCC(=O)[C@@H]1CCCN1C(=O)[C@@H]1CCCN1C(=O)NCc1ccccc1)c1ccccc1 [Compound 3] | 0 | 0 | 0.1 | 98 | 0 | 0 | 0 |
| – | CC(C)(C)C(=O)OCC(=O)[C@@H]1CCCN1C(=O)[C@@H]1CCCN1C(=O)NCc1ccccc1 [Compound 4, (S)-N-(Phenylmethyl)-2-[[(S)-2-(pivaloyloxyacetyl)-1-pyrrolidinyl]carbonyl]-1-pyrrolidinecarboxamide] | 0 | 0 | 1 | 97 | 0 | 0 | 0 |
| – | O=C(CO)[C@@H]1CCCN1C(=O)[C@@H]1CCCN1C(=O)NCCc1ccccc1 [Compound 5, (S)-2-[[(S)-2-(Hydroxyacetyl)-1-pyrrolidinyl]carbonyl]-N-(2-phenylethyl)-1-pyrrolidinecarboxamide] | 0 | 0 | 0.3 | 100 | 0 | 0 | 0 |
| – | COc1ccc(CNC(=O)N2CCC[C@H]2C(=O)N2CCC[C@H]2C(=O)CO)cc1 [Compound 6, (S)-2-[[(S)-2-(Hydroxyacetyl)-1-pyrrolidinyl]carbonyl]-N-[(4methoxyphenyl)methyl]-1-pyrrolidinecarboxamide] | 0 | 0 | 0.7 | 100 | 0 | 0 | 0 |
| – | COc1ccc(OCC(=O)N2CCC[C@H]2C(=O)N2CCC[C@H]2C(=O)CO)cc1 [Compound 9, (S)-2-[[(S)-2-(Hydroxyacetyl)-1-pyrrolidinyl]carbonyl]-1-[(4methoxyphenyl)oxyacetyl]pyrrolidine] | – | – | 2 | – | – | – | – |
| – | COc1ccc(OCC(=O)N2CCC[C@H]2C(=O)N2CCC[C@H]2C(=O)COC(=O)C(C)(C)C)cc1 [Compound 10, (S)-1-[(4-Methoxyphenyl)oxyacetyl]-2-[[(S)-2-(pivaloyloxyacetyl)1-pyrrolidinyl]carbonyl]pyrrolidine] | – | – | 10 | – | – | – | – |
| – | CCCCCCCC(=O)N1CCC[C@H]1C(=O)N1CCC[C@H]1C(=O)CO [Compound 11, (S)-2-[[(S)-2-(Hydroxyacetyl)-1-pyrrolidinyl]carbonyl]-1-octanoylpyrrolidine] | – | – | 0.4 | – | – | – | – |
| – | CCCCCCCC(=O)N1CCC[C@H]1C(=O)N1CCC[C@H]1C(=O)COC(C)=O [Compound 12, (S)-2-[[(S)-2-(Acetoxyacetyl)-1-pyrrolidinyl]carbonyl]-1-octanoylpyrrolidine] | – | – | 2 | – | – | – | – |
| – | CCCCCCCC(=O)N1CCC[C@H]1C(=O)N1CCC[C@H]1C(=O)COC(=O)c1ccccc1 [Compound 13, (S)-2-[[(S)-2-(Benzoyloxyacetyl)-1-pyrrolidinyl]carbonyl]-1-octanoylpyrrolidine] | – | – | 8 | – | – | – | – |
| – | O=C(CO)[C@@H]1CCCN1C(=O)[C@@H]1CSCN1C(=O)OCc1ccccc1 [Compound 14, (R)-4-[[(S)-2-(Hydroxyacetyl)-1-pyrrolidinyl]carbonyl]-3(phenylmethyloxycarbonyl)thiazolidine] | – | – | 1 | – | – | – | – |
| – | CC(=O)OCC(=O)[C@@H]1CCCN1C(=O)[C@@H]1CCCN1C(=O)NCc1ccc(Cl)cc1 [Compound 15, (S)-2-[[(S)-2-(Acetoxyacetyl)-1-pyrrolidinyl]carbonyl]-N(4-chlorophenylmethyl)-1-pyrrolidinecarboxamide] | – | – | 2 | – | – | – | – |
